Data reported in ChEMBL document CHEMBL1141818, “Annonaceous acetogenins: recent progress” (J Nat Prod, 1999).
≈ marks a conversion by molar mass, not a printed value. One block for each compound: values may come before it.

Experiments:
MIA PaCa-2 = test: Cytotoxicity against human MIA PaCa2 cells; assay type: functional; settings: for EC50: Homo sapiens, MIA PaCa-2, read-out: ED50 (the source's name)
PC-3 = test: Cytotoxicity against human PC-3 cells; assay type: functional; settings: for EC50: Homo sapiens, PC-3, read-out: ED50 (the source's name)
HT-29 = test: Cytotoxicity against human HT-29 cells; assay type: functional; settings: for EC50: Homo sapiens, HT-29, read-out: ED50 (the source's name)
MCF7 [1] = test: Cytotoxicity against human MCF7 cells; assay type: functional; settings: for EC50: Homo sapiens, MCF7, read-out: ED50 (the source's name)
A498 = test: Cytotoxicity against human A-498 cells; assay type: functional; settings: for EC50: Homo sapiens, A498, read-out: ED50 (the source's name)
Artemia = test: Toxicity in brine shrimp; assay type: organism-based; settings: in vivo
A549 = test: Cytotoxicity against human A549 cells; assay type: functional; settings: for EC50: Homo sapiens, A549, read-out: ED50 (the source's name)
HL-60 = test: Cytotoxicity against human HL-60 cells; assay type: functional, cell-based
HCT-8 = test: Cytotoxicity against human HCT8 cells; assay type: functional, cell-based
KB = test: Cytotoxicity against human KB cells; assay type: functional, cell-based; settings: for IC50: Homo sapiens, KB
A2780 = test: Cytotoxicity against human A2780 cells; assay type: functional, cell-based
X5563 = test: Cytotoxicity against human X5563 cells; assay type: functional
Blattella germanica [2] = test: Ratio of LT50 for Blattella germanica Muncie second instars to LT50 for Blattella germanica Jwax second instars; assay type: functional
Blattella germanica [3] = test: Ratio of LT50 for Blattella germanica Muncie fifth instars to LT50 for Blattella germanica Jwax fifth instars; assay type: functional
Aedes aegypti = test: Insecticidal activity against yellow fever mosquito; assay type: functional
U-251 = test: Cytotoxicity against human U251 cells; assay type: functional, cell-based
Bel-7402 = test: Cytotoxicity against human Bel-7402 cells; assay type: functional, cell-based
MCF7 [4] = test: Cytotoxicity against human wild type MCF7 cells at 1 ug/ml; assay type: functional
RPMI-7951 = test: Cytotoxicity against human RPMI-7951 cells; assay type: functional; settings: read-out: ED50 (the source's name)
[5] = Inhibition of NADH oxidase
[6] = Cytotoxicity against human CCM2 cells; assay type: functional; settings: read-out: ED50 (the source's name)
[7] = Cytotoxicity against human Hep2.2.15 cells; assay type: functional; settings: HepG2 2.2.15, read-out: ED50 (the source's name)
[8] = Cytotoxicity against human Hep G2 cells; assay type: functional; settings: HepG2, read-out: ED50 (the source's name)

Compound: CCCCCCCCCC[C@@H](O)[C@H]1CC[C@H]([C@H]2CC[C@H]([C@H](O)CCCCCCCC[C@@H](O)CCCC3=C[C@H](C)OC3=O)O2)O1 [BULLACIN]
EC50 (MIA PaCa-2): 0.41 mg/L (≈ 0.658 µM)
EC50 (PC-3): > 1 mg/L
EC50 (HT-29): 0.0045 mg/L (≈ 0.00722 µM)
ED50 (MCF7 [1]): 2.5 ×10⁻⁷ ug/ml
EC50 (A498): > 1 mg/L
LC50 (Artemia): 1.9 ×10⁻² ug/ml
ED50 (A549): 9 ×10⁻⁷ ug/ml

Compound: CCCCCCCCCCCC[C@@H](O)[C@H]1CC[C@H]([C@H](O)CC(O)CCCCCCCCCC(=O)CCC2=C[C@H](C)OC2=O)O1 (some centres not stated) [TONKININ B]
IC50 (HL-60): 0.06 mg/L (≈ 0.0963 µM)
IC50 (HCT-8): 2.4 mg/L (≈ 3.85 µM)
IC50 (KB): > 10 mg/L
IC50 (A2780): > 10 mg/L

Compound: CCCCC[C@H](O)CCCC[C@H](O)[C@H]1CC[C@H]([C@H]2CC[C@H]([C@H](O)CCCC[C@H](O)CCCCCCCC3=C[C@H](C)OC3=O)O2)O1 [PURPURENIN]
EC50 (MIA PaCa-2): 2 mg/L (≈ 3.13 µM)
EC50 (PC-3): 1.1 mg/L (≈ 1.72 µM)
EC50 (HT-29): 0.32 mg/L (≈ 0.501 µM)
EC50 (MCF7 [1]): 1.7 mg/L (≈ 2.66 µM)
EC50 (A498): 1.3 mg/L (≈ 2.03 µM)
LC50 (Artemia): 2.9 ×10⁻² ug/ml
EC50 (A549): 1.3 mg/L (≈ 2.03 µM)

Compound: CCCCCCCCCC[C@H](O)[C@H]1CC[C@H]([C@H](O)CC[C@H](O)[C@@H]2CC[C@@H](CCCCCCC[C@@H](O)CC3=C[C@H](C)OC3=O)O2)O1 [BULLATALICIN]
Activity (X5563): 67%
Ratio (Blattella germanica [2]): 0.9
Ratio (Blattella germanica [3]): 1.8
LC50 (Aedes aegypti): 0.1 mg/L (≈ 0.157 µM)

Compound: CCCCCCCCCC[C@@H](O)[C@H]1CC[C@@H]([C@H]2CC[C@H]([C@H](O)CCC[C@H](O)CCCCCCCC3=C[C@H](C)OC3=O)O2)O1 [TRILOBIN]
LC50 (Aedes aegypti): 0.67 mg/L (≈ 1.1 µM)

Compound: CCCCCCCCCCCC[C@H](O)[C@H]1CC[C@H]([C@H](O)CCCCCC(O)CCCCCCC2CC(CC(C)=O)C(=O)O2)O1 (mixture of isomers) [(2,4-CIS/TRANS)-SQUAMOXINE B]
ED50 (MIA PaCa-2): 8.3 ×10⁻⁴ ug/ml
EC50 (PC-3): 0.05 mg/L
EC50 (HT-29): 0.0027 mg/L
EC50 (MCF7 [1]): 0.0014 mg/L
EC50 (A498): 0.004 mg/L
LC50 (Artemia): 4.6 ×10⁻² ug/ml
EC50 (A549): 0.0038 mg/L

Compound: CCCCCCCCCC[C@@H](O)[C@@H]1CC[C@@H]([C@@H]2CC[C@@H]([C@@H](O)CCCCC(=O)CCCCCCCC3=C[C@H](C)OC3=O)O2)O1 [GUANACONNE]
IC50 (U-251): 1.5 nM

Compound: CCCCCCCCCCCCCC[C@H](O)[C@H]1CC[C@H]([C@@H](CC(O)CCCCCCCCCCC2=C[C@H](C)OC2=O)OC(C)=O)O1 (some centres not stated) [TONKININ C]
IC50 (HL-60): 0.00042 mg/L (≈ 0.000645 µM)
IC50 (HCT-8): 0.86 mg/L (≈ 1.32 µM)
IC50 (KB): > 10 mg/L
IC50 (A2780): > 10 mg/L

Compound: CCCCCCCCCC[C@H](O)[C@H]1CC[C@H]([C@H]2CC[C@H]([C@H](O)CCCCCCCCCC[C@@H]3CC(CC(C)=O)C(=O)O3)O2)O1 (mixture of isomers) [BULLATACINONE]
EC50 (MIA PaCa-2): 1.1 mg/L
EC50 (PC-3): 2.6 mg/L
EC50 (HT-29): 1.7 mg/L
EC50 (MCF7 [1]): 1.8 mg/L
EC50 (A498): 1.8 mg/L
LC50 (Artemia): 7.4 ×10⁻² ug/ml
EC50 (A549): 1.9 mg/L

Compound: CCCCCCCCCCCC[C@H](O)[C@H](O)CC[C@H](O)[C@@H]1CC[C@@H](C[C@H](O)CCCCC[C@@H](O)CC2=C[C@@](C)(O)OC2=O)O1 [GARDNERININ]
IC50 (HCT-8): 6.6 mg/L (≈ 10.5 µM)
IC50 (KB): > 10 mg/L
IC50 (Bel-7402): > 10 mg/L

Compound: CCCCCCCCCCCC[C@H](O)[C@H]1CC[C@H]([C@H](O)CC(O)CCCCCCCCCC(=O)CCC2=C[C@H](C)OC2=O)O1 (some centres not stated) [TONKININ A]
IC50 (HL-60): 0.016 mg/L (≈ 0.0257 µM)
IC50 (HCT-8): 0.59 mg/L (≈ 0.947 µM)
IC50 (KB): > 10 mg/L
IC50 (A2780): > 10 mg/L

Compound: CCCCCCCCCC[C@@H](O)[C@H]1CC[C@@H]([C@H]2CC[C@H]([C@H](O)CCCCCCCCCC[C@@H]3CC(CC(C)=O)C(=O)O3)O2)O1 (mixture of isomers)
EC50 (MIA PaCa-2): 0.069 mg/L
EC50 (PC-3): 2.8 mg/L
EC50 (HT-29): 1.6 mg/L
ED50 (MCF7 [1]): 1.3 ×10⁻⁸ ug/ml
EC50 (A498): 0.49 mg/L
LC50 (Artemia): 2 ×10⁻² ug/ml
ED50 (A549): 4.6 ×10⁻⁴ ug/ml

Compound: CCCCCCCCCCCCCC[C@H](O)[C@@H]1C[C@@H](O)[C@@H]([C@@H](O)CC[C@@H](O)CCCCC[C@@H](O)CC2=C[C@H](C)OC2=O)O1 [DONNAIENIN]
IC50 (HCT-8): 6.6 mg/L (≈ 10.8 µM)
IC50 (KB): > 10 mg/L
IC50 (Bel-7402): 6.7 mg/L (≈ 10.9 µM)

Compound: CCCCCCCCCCCCCCCC[C@@H](O)[C@H](O)CCCCCCCCCCCCCCC1=C[C@H](C)OC1=O [TONKINELIN]
IC50 (HL-60): 1 mg/L (≈ 1.73 µM)
IC50 (HCT-8): 6.7 mg/L (≈ 11.6 µM)
IC50 (KB): > 10 mg/L
IC50 (A2780): > 10 mg/L

Compound: CCCCCCCCCCCC[C@@H](O)[C@H]1CC[C@H]([C@H](O)CCCC[C@H](O)CCCCC[C@H](CC2=C[C@@](C)(O)OC2=O)OC(C)=O)O1 [DONNAIENIN C]
IC50 (HCT-8): > 10 mg/L
IC50 (KB): > 10 mg/L
IC50 (Bel-7402): 7.1 mg/L (≈ 10.8 µM)

Compound: CCCCCCC(O)CCC[C@H](O)[C@@H]1CC[C@@H]([C@@H]2CC[C@H]([C@H](O)CCCCCCCCCCC3=C[C@H](C)OC3=O)O2)O1 (some centres not stated) [CAROLIN C]
ED50 (KB): 2 ×10⁻⁴ ug/ml
Activity (MCF7 [4]): 50%

Compound: CCCCCCCCCC[C@H](O)[C@@H]1CC[C@@H]([C@@H]2CC[C@@H]([C@@H](O)CCC(O)CCCCCCCCC[C@@H](O)CC3=C[C@H](C)OC3=O)O2)O1 (some centres not stated) [ARTICULIN]
EC50 (MIA PaCa-2): 1 mg/L (≈ 1.5 µM)
EC50 (PC-3): 1.9 mg/L (≈ 2.85 µM)
EC50 (HT-29): 0.6 mg/L (≈ 0.9 µM)
EC50 (MCF7 [1]): 0.004 mg/L (≈ 0.006 µM)
EC50 (U-251; read-out: ED50 (the source's name)): 0.01 mg/L (≈ 0.015 µM)
EC50 (A549): 0.006 mg/L (≈ 0.009 µM)
EC50 (RPMI-7951): 0.01 mg/L (≈ 0.015 µM)

Compound: CCCCCCCCCCCC[C@@H](O)[C@H](O)CC[C@@H](O)[C@H](O)CCCC[C@H](O)CCCCC[C@H](CC1=C[C@@](C)(O)OC1=O)OC(C)=O [DONNAIENIN D]
IC50 (HCT-8): > 10 mg/L
IC50 (KB): > 10 mg/L
IC50 (Bel-7402): > 10 mg/L

IC50 [5]: 0.3 nM
Compound: CCCCCCCCCC[C@@H](O)[C@@H]1CC[C@H]([C@H]2CC[C@@H]([C@@H](O)CCCCCCCCCCC3=C[C@H](C)OC3=O)O2)O1 [MEMBRAROLLIN]

Compound: CCCCCCCCCC[C@H](O)[C@H]1CC[C@H]([C@H](O)CCCCCC(O)CCCCCCC2CC(CC(C)=O)C(=O)O2)O1 (mixture of isomers)
EC50 (MIA PaCa-2): 0.0095 mg/L
EC50 (PC-3): 2.24 mg/L
EC50 (HT-29): 0.35 mg/L
EC50 (MCF7 [1]): 0.0011 mg/L
EC50 (A498): 0.0067 mg/L
LC50 (Artemia): 9.7 ×10⁻² ug/ml
EC50 (A549): 0.21 mg/L

Compound: CCCCCCCCCC[C@H](O)[C@@H](O)CCCC[C@H]1CC[C@H]([C@H]2CC[C@H]([C@H](O)CCCCC[C@@H](O)CC3=C[C@H](C)OC3=O)O2)O1 (stereo in doubt) [GLACIN B]
ED50 (MIA PaCa-2): 2.8 ×10⁻¹ ug/ml
ED50 (PC-3): 1.2 mg/L (≈ 1.88 µM)
ED50 (HT-29): 1.9 ×10⁻² ug/ml
ED50 (MCF7 [1]): 1.8 ×10⁻³ ug/ml
ED50 (A498): 1.4 mg/L (≈ 2.19 µM)
LC50 (Artemia): 3.1 ×10⁻¹ ug/ml
ED50 (A549): 1.6 ×10⁻¹ ug/ml

Compound: CCCCCCCCCCCC[C@@H](O)[C@H]1CC[C@H]([C@H](O)CC/C=C\CCCCCC[C@@H]2CC(CC(C)=O)C(=O)O2)O1 (mixture of isomers)
EC50 [6]: 0.085 mg/L
EC50 [7]: 0.14 mg/L
EC50 [8]: 0.047 mg/L

Compound: CCCCCCCCCC[C@H](O)[C@@H]1CC[C@H]([C@H]2CC[C@@H]([C@H](O)CCCCCCCC[C@@H](O)CC3=C[C@H](C)OC3=O)O2)O1 [ROLLIMEMBRIN]
IC50 [5]: 0.33 nM
